Measured values published in ChEMBL document CHEMBL1131437, “Resistance-modifying agents. 5. Synthesis and biological properties of quinazolinone inhibitors of the DNA repair enzyme poly(ADP-ribose) polymerase (PARP)” (J Med Chem, 1998).

Target: Poly [ADP-ribose] polymerase 1 (Mus musculus, UniProt P11103)
Experiment: biochemical
Description: Inhibition of the DNA repair Poly (ADP-ribose) polymerase 1, in permeabilised L1210 murine leukemia cells

Chain of Poly [ADP-ribose] polymerase 1 (P11103 whole entry): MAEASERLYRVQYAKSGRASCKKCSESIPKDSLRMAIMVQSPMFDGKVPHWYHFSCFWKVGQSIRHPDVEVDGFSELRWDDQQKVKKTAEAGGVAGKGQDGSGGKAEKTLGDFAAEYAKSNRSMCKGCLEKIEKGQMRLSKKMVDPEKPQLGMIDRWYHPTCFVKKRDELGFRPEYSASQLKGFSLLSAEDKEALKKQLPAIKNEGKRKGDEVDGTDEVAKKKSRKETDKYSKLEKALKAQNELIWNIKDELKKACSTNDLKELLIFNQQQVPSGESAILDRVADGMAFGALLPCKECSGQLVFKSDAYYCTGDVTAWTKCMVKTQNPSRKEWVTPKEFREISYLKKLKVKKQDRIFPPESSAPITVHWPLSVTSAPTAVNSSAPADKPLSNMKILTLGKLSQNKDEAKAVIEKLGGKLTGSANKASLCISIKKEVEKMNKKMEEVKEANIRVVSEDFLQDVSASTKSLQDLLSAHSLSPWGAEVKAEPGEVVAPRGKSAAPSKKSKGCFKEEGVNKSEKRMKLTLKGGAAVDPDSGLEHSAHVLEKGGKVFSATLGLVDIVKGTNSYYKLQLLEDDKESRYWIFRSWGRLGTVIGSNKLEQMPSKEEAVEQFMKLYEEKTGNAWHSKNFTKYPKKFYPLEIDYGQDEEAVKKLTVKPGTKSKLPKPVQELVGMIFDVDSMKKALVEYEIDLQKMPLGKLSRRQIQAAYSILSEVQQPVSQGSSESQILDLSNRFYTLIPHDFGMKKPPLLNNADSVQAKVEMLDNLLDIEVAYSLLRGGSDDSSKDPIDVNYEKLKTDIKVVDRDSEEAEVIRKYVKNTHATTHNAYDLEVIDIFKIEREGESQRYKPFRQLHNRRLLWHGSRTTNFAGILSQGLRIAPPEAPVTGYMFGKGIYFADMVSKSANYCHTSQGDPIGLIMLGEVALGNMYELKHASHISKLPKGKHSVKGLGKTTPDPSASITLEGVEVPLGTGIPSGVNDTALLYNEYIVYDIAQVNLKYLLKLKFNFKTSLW

Structure (SMILES) | IC50 [nM]
Cc1cccc2c(O)nc(-c3ccc(C#N)cc3)nc12 | 270
COc1cccc2c(O)nc(-c3ccc([N+](=O)[O-])cc3)nc12 | 850
Cc1cccc2c(=O)[nH]c(-c3ccc(O)cc3)nc12 | 220
Nc1ccc(-c2nc(O)c3cccc(O)c3n2)cc1 | 320
COc1cccc2c(=O)[nH]c(-c3ccc(N=[N+]=[N-])cc3)nc12 | 1930
COc1cccc2c(=O)n(C)c(C)nc12 | > 100000
COc1cccc2c(O)nc(-c3ccc(N)cc3)nc12 | > 300
COc1cccc2c(O)nc(-c3ccc(C#N)cc3)nc12 | 1340

The next lines start with the values.

IC50 [nM] | Structure (SMILES)
39000 | COc1cccc2c(O)nc(-c3ccc(C(F)(F)F)cc3)nc12
870 | Cc1cccc2c(=O)[nH]c(-c3ccccc3)nc12
190 | COc1ccc(-c2nc3c(C)cccc3c(=O)[nH]2)cc1
390 | Cc1nc(O)c2cccc(C)c2n1
> 100000 | Cc1nc2c(O)cccc2c(=O)n1C
> 10000 | Cc1cccc2c(O)nc(-c3ccc(C(F)(F)F)cc3)nc12
440 | Cc1cccc2c(O)nc(-c3ccc(N)cc3)nc12
19100 | NC(=O)c1cccc(N)c1 [3-AMINOBENZAMIDE]
